Assay results reported in patent US20130012546A1 (priority 2009, published 2013).

Assay: logP(HCOOH) by HPLC
Assay type: physicochemical
Conditions: HPLC on reversed phase columns, pH 2.7, 0.1% formic acid in water / acetonitrile gradient

First: CC1=C(CC(C)OCC(=O)Nc2cccc(CON=C(c3ccccc3)n3nnnc3C)n2)C1 (stereo not drawn) [compound 221]
Second: CC1=C(CC(C)OCC(=O)Nc2nc(CON=C(c3ccccc3)n3nnnc3C)cs2)C1 (stereo not drawn) [compound 215]
The log p of the first is higher: 4.37 for the first, 4.11 for the second.

Compared with `CC(C)=NOCCOC(=O)Nc1cccc(CON=C(c2ccccc2)c2nnnn2C)n1` [compound 213], `CC1=C(CC(C)OCC(=O)Nc2cccc(CON=C(c3ccccc3)c3nnnn3C)n2)C1(C)C` (stereo not drawn) [compound 224] is higher in log p: 3.11 for the first, 5.14 for the second.

Compared with `CCC(OC1CCCC1)C(=O)Nc1cccc(CON=C(c2ccccc2)c2nnnn2C)n1` (stereo not drawn) [compound 196], `CCC(OC1CCCCC1)C(=O)Nc1cccc(CON=C(c2ccccc2)c2nnnn2C)n1` (stereo not drawn) [compound 193] is higher in log p: 4.51 for the first, 4.88 for the second.

Compared with `CC1CCCC(OC(C)C(=O)Nc2cccc(CON=C(c3ccccc3)c3nnnn3C)n2)C1` (stereo not drawn) [compound 197], `CCC(OC1CCCCCC1)C(=O)Nc1cccc(CON=C(c2ccccc2)c2nnnn2C)n1` (stereo not drawn) [compound 195] is higher in log p: 4.81 for the first, 5.27 for the second.

Going from `CC(C)=NOC(C)C(=O)Nc1cccc(CON=C(c2ccccc2)n2nnnc2C)n1` (stereo not drawn) [compound 203] to `CC(=NOCC(=O)Nc1cccc(CON=C(c2ccccc2)n2nnnc2C)n1)C(C)(C)C` [compound 204], the log p rises from 3.35 to 4.34.

`CC1=C(CC(C)OCC(=O)Nc2nc(CON=C(c3ccccc3)n3nnnc3C)cs2)C1(C)C` (stereo not drawn) [compound 216] and `CC1=C(CC(C)OC(=O)Nc2nc(CON=C(c3ccccc3)n3nnnc3C)cs2)C1(C)C` (stereo not drawn) [compound 207] are within 0.2 log units of each other in log p: 4.91 for the first, 4.86 for the second.

Going from `Cn1nnnc1C(=NOCc1csc(NC(=O)CC[Si](C)(C)C)n1)c1ccccc1` [compound 227] to `Cn1nnnc1C(=NOCc1csc(NC(=O)OCCCC#C[Si](C)(C)C)n1)c1ccccc1` [compound 228], the log p rises from 4.01 to 4.71.

`CC1=C(CC(C)OC(=O)Nc2nc(CON=C(c3ccccc3)n3nnnc3C)cs2)C1` (stereo not drawn) [compound 208] and `CC1=C(CC(C)OC(=O)Nc2nc(CON=C(c3ccccc3)c3nnnn3C)cs2)C1` (stereo not drawn) [compound 210] are within 0.2 log units of each other in log p: 4.11 for the first, 4.06 for the second.

`Cc1nnnn1C(=NOCc1csc(NC(=O)CC=COc2ccccc2)n1)c1ccccc1` [compound 217] and `Cn1nnnc1C(=NOCc1csc(NC(=O)CC=COc2ccccc2)n1)c1ccccc1` [compound 220] are within 0.2 log units of each other in log p: 3.61 for the first, 3.57 for the second.

Compared with `CC1=C(CC(C)OCC(=O)Nc2nc(CON=C(c3ccccc3)c3nnnn3C)cs2)C1(C)C` (stereo not drawn) [compound 218], `Cn1nnnc1C(=NOCc1csc(NC(=O)OC2CCc3ccccc3C2)n1)c1ccccc1` (stereo not drawn) [compound 211] is lower in log p: 4.83 for the first, 4.14 for the second.

Same assay, conditions: HPLC on reversed phase columns, pH 2.7, 0.1% formic acid in water / acetonitrile, linear gradient 10% to 95% acetonitrile; EEC directive 79/831 Annex V.A8

First: Cn1nnnc1C(=NOCc1csc(NC(=O)OCCCC2CC2)n1)c1ccccc1 [Example 76]
Second: Cn1nnnc1C(=NOCc1csc(NC(=O)OCCC2CC2)n1)c1ccccc1 [compound 149]
The log p of the first is higher: 3.85 for the first, 3.46 for the second.

`Cn1nnnc1C(=NOCc1csc(NC(=O)COCC#C[Si](C)(C)C)n1)c1ccccc1` [compound 118] and `C=C=CCCCOC(=O)Nc1nc(CON=C(c2ccccc2)c2nnnn2C)cs1` [compound 140] are within 0.2 log units of each other in log p: 3.7 for the first, 3.69 for the second.

Compared with `C#CCOC(CC)C(=O)Nc1nc(CON=C(c2ccccc2)n2nnnc2C)cs1` (stereo not drawn) [compound 115], `C#CCOC(C(=O)Nc1nc(CON=C(c2ccccc2)n2nnnc2C)cs1)C(C)C` (stereo not drawn) [compound 114] is higher in log p: 3.11 for the first, 3.46 for the second.

Compared with `Cn1nnnc1/C(=N\OCc1cccc(NC(=O)OCC2CC2)n1)c1ccccc1` [Example 58], `Cn1nnnc1C(=NOCc1cccc(NC(=O)OCC2CCC2)n1)c1ccccc1` [compound 163] is higher in log p: 3.46 for the first, 3.92 for the second.

`CC(OC1CCC1)C(=O)Nc1cccc(CON=C(c2ccccc2)c2nnnn2C)n1` (stereo not drawn) [compound 192] and `Cc1nnnn1C(=NOCc1cccc(NC(=O)C(C)OC2CCC2)n1)c1ccccc1` (stereo not drawn) [compound 185] are within 0.2 log units of each other in log p: 3.7 for the first, 3.74 for the second.

Going from `Cc1nnnn1C(=NOCc1cccc(NC(=O)OCCC2CC2)n1)c1ccccc1` [compound 155] to `Cc1nnnn1C(=NOCc1cccc(NC(=O)OCCC2CCCC2)n1)c1ccccc1` [compound 156], the log p rises from 3.81 to 4.71.

Compared with `CON=C(C(=O)Nc1nc(CON=C(c2ccccc2)n2nnnc2C)cs1)c1ccc(C)cc1` [compound 125], `CON=C(C(=O)Nc1nc(CON=C(c2ccccc2)c2nnnn2C)cs1)c1ccc(C)cc1` [compound 129] is higher in log p: 3.85 for the first, 4.05 for the second.

Going from `CCC(OC1CCCC1)C(=O)Nc1cccc(CON=C(c2ccccc2)n2nnnc2C)n1` (stereo not drawn) [compound 188] to `Cc1nnnn1C(=NOCc1cccc(NC(=O)C(C)OC2CCCC2)n1)c1ccccc1` (stereo not drawn) [compound 183], the log p falls from 4.65 to 4.12.

Compared with `CON=C(C(=O)Nc1nc(CON=C(c2ccccc2)n2nnnc2C)cs1)c1ccc(C)cc1` [compound 124], `CON=C(C(=O)Nc1nc(CON=C(c2ccccc2)c2nnnn2C)cs1)c1ccc(C)cc1` [compound 130] is lower in log p: 4.13 for the first, 3.79 for the second.

Compared with `CCC(OC1CCCCC1)C(=O)Nc1nc(CON=C(c2ccccc2)c2nnnn2C)cs1` (stereo not drawn) [compound 173], `CCC(OC1CCCCCC1)C(=O)Nc1nc(CON=C(c2ccccc2)c2nnnn2C)cs1` (stereo not drawn) [compound 176] is higher in log p: 4.42 for the first, 4.87 for the second.

`Cn1nnnc1/C(=N\OCc1cccc(NC(=O)OC2CC3CCC2(C)C3(C)C)n1)c1ccccc1` (stereo not drawn) [Example 55] and `Cc1nnnn1C(=NOCc1cccc(NC(=O)OC2CC3CCC2(C)C3(C)C)n1)c1ccccc1` (stereo not drawn) [compound 143] are within 0.2 log units of each other in log p: 5.32 for the first, 5.3 for the second.

First: CC(OC1CCCCC1)C(=O)Nc1nc(CON=C(c2ccccc2)c2nnnn2C2CC2)cs1 (stereo not drawn) [compound 164]
Second: CC(OC1CCCCC1)C(=O)Nc1cccc(CON=C(c2ccccc2)c2nnnn2C2CC2)n1 (stereo not drawn) [compound 180]
The log p of the first is lower: 4.53 for the first, 4.93 for the second.

Compared with `C=C(C)C(C)=CCC(C)OCC(=O)Nc1cccc(CON=C(c2ccccc2)c2nnnn2C)n1` (stereo not drawn) [compound 113], `CC(=NOCC(=O)Nc1cccc(CON=C(c2ccccc2)c2nnnn2C)n1)C(C)(C)C` [Example 31] is lower in log p: 4.73 for the first, 4.23 for the second.

Compared with `Cn1nnnc1C(=NOCc1cccc(NC(=O)OCCC2CC2)n1)c1ccccc1` [compound 159], `Cn1nnnc1C(=NOCc1cccc(NC(=O)OCCCC2CC2)n1)c1ccccc1` [Example 72] is higher in log p: 3.72 for the first, 4.15 for the second.

Compared with `CON=C(C(=O)Nc1cccc(CON=C(c2ccccc2)n2nnnc2C)n1)c1ccccc1Cl` [compound 131], `CON=C(C(=O)Nc1cccc(CON=C(c2ccccc2)n2nnnc2C)n1)c1ccc(Cl)cc1` [compound 135] is higher in log p: 4.18 for the first, 4.51 for the second.

First: C#CCOCC(=O)Nc1nc(CO/N=C(/c2ccccc2)n2nnnc2C)cs1 [Example 49]
Second: C=CCCCOCC(=O)Nc1nc(CON=C(c2ccccc2)n2nnnc2C)cs1 [compound 111]
The log p of the first is lower: 2.69 for the first, 3.55 for the second.

Compared with `CC(OC(=O)Nc1nc(CON=C(c2ccccc2)c2nnnn2C)cs1)C1CCCC1` (stereo not drawn) [compound 152], `CC(OC(=O)Nc1cccc(CON=C(c2ccccc2)c2nnnn2C)n1)C1CCCC1` (stereo not drawn) [compound 162] is higher in log p: 4.25 for the first, 4.61 for the second.

Going from `CCC(OC1CCC1)C(=O)Nc1nc(CON=C(c2ccccc2)c2nnnn2C)cs1` (stereo not drawn) [compound 174] to `CC(OC1CCC1)C(=O)Nc1nc(CON=C(c2ccccc2)c2nnnn2C)cs1` (stereo not drawn) [compound 172], the log p falls from 3.76 to 3.39.

Going from `Cc1nnnn1C(=NOCc1csc(NC(=O)C(C)OC2CCC2)n1)c1ccccc1` (stereo not drawn) [compound 165] to `CCC(OC1CCC1)C(=O)Nc1nc(CON=C(c2ccccc2)n2nnnc2C)cs1` (stereo not drawn) [compound 167], the log p rises from 3.46 to 3.83.

Going from `C#CCOC(C(=O)Nc1cccc(CON=C(c2ccccc2)c2nnnn2C)n1)C(C)C` (stereo not drawn) [compound 122] to `C#CCOC(CC)C(=O)Nc1cccc(CON=C(c2ccccc2)n2nnnc2C)n1` (stereo not drawn) [compound 119], the log p falls from 3.63 to 3.33.

`CC1CCC(OC(C)C(=O)Nc2nc(CON=C(c3ccccc3)c3nnnn3C)cs2)CC1` (stereo not drawn) [compound 178] and `CC1CCCC(OC(C)C(=O)Nc2nc(CON=C(c3ccccc3)c3nnnn3C)cs2)C1` (stereo not drawn) [compound 177] are the same in log p: 4.44 for the first, 4.44 for the second.

Compared with `CCC(OC1CCCCC1)C(=O)Nc1nc(CON=C(c2ccccc2)n2nnnc2C)cs1` (stereo not drawn) [compound 166], `CCC(OC1CCCC1)C(=O)Nc1nc(CON=C(c2ccccc2)n2nnnc2C)cs1` (stereo not drawn) [compound 168] is lower in log p: 4.56 for the first, 4.24 for the second.

Going from `Cc1nnnn1C(=NOCc1csc(NC(=O)OC(C)C2CCCCC2)n1)c1ccccc1` (stereo not drawn) [compound 147] to `Cc1nnnn1C(=NOCc1cccc(NC(=O)OC(C)C2CCCCC2)n1)c1ccccc1` (stereo not drawn) [compound 157], the log p rises from 4.66 to 5.08.

First: Cc1nnnn1C(=NOCc1csc(NC(=O)OCCCC2CCCCC2)n1)c1ccccc1 [Example 67]
Second: Cc1nnnn1C(=NOCc1csc(NC(=O)OCCCC2CC2)n1)c1ccccc1 [Example 68]
The log p of the first is higher: 5.11 for the first, 3.9 for the second.

First: Cn1nnnc1/C(=N\OCc1cccc(NC(=O)OCCC2CCCCC2)n1)c1ccccc1 [Example 59]
Second: Cn1nnnc1C(=NOCc1cccc(NC(=O)OCCC2CCCC2)n1)c1ccccc1 [compound 160]
The log p of the first is higher: 5.11 for the first, 4.61 for the second.

`CC(OC1CCCCC1)C(=O)Nc1ccc(Br)c(CON=C(c2ccccc2)c2nnnn2C)n1` (stereo not drawn) [compound 181] and `Cc1nnnn1C(=NOCc1cccc(NC(=O)C(C)OC2CCCC(C)C2)n1)c1ccccc1` (stereo not drawn) [compound 190] are within 0.2 log units of each other in log p: 5.11 for the first, 4.96 for the second.

`CON=C(C(=O)Nc1cccc(CON=C(c2ccccc2)n2nnnc2C)n1)c1ccc(C)cc1` [compound 134] and `CCON=C(C(=O)Nc1nc(CON=C(c2ccccc2)c2nnnn2C)cs1)c1ccc(Cl)cc1` [compound 128] are within 0.2 log units of each other in log p: 4.44 for the first, 4.56 for the second.

Compared with `Cc1nnnn1C(=NOCc1csc(NC(=O)OCCC2CC2)n1)c1ccccc1` [compound 145], `Cc1nnnn1C(=NOCc1csc(NC(=O)OCC2CCCC2)n1)c1ccccc1` [Example 66] is higher in log p: 3.5 for the first, 3.99 for the second.

First: Cn1nnnc1C(=NOCc1csc(NC(=O)OCCCC2CCCC2)n1)c1ccccc1 [Example 73]
Second: Cn1nnnc1C(=NOCc1csc(NC(=O)OCCC2CCCC2)n1)c1ccccc1 [compound 150]
The log p of the first is higher: 4.7 for the first, 4.26 for the second.
